Results taken from patent publication US9974305B2, “Fungicidal or bactericidal composition, and method for controlling diseases” (NISSAN CHEMICAL INDUSTRIES, LTD., priority 2014, dated 2018).

Experiments:
[1] = system: rice sheath blight fungus (Rhizoctonia solani); experiment: Efficacy test on rice sheath blight, spray treatment and prevention test (Test Examples 5-6); format: in vivo; conditions: single compound 250 ppm, lesion height
Protocol: An agent comprising the following compound listed in Table 2 (active ingredient A) and the compound listed in Table 6 (C17: active ingredient B) as active ingredients, was prepared in accordance with the above Formulation Example. The agent was diluted with water to a predetermined concentration to obtain a test solution. Then, in a plastic pot of 90 cm^3, rice (Nipponbare) was seeded by 5 grains in one place, and to the grown seedlings in 4 seedling phase, the test solution was applied by a spray gun in an amount of 5 ml per pot, for treatment.
One day after the treatment, 1 g of mycelium flora of rice sheath blight fungus (Rhizoctonia solani) cultured in bran medium, was put by […] to a close-to-ground part of seedlings, and the pot was placed in a moist chamber set in temperature of 25° C. and humidity more than 95% RH for eight days. The height of the lesions which appeared in the highest position from the close-to-ground part (lesion height) was investigated, and the preventive value was calculated in accordance with the following formula. Preventive value=[1−(treated plot lesion height/untreated plot lesion height)]×100
Further, from the preventive value for each agent concentration, synergy was calculated by using the Colby method (Colby S. R. 1976, Weeds 15, 20-22).
Using the following compound listed in Table 2 (active ingredient A) and the compound listed in Table 6 (C17: active ingredient B) as active ingredients, a preventive test on rice sheath blight was conducted in accordance with the above Test Example 5.

[2] = system: wheat glume blotch (Leptosphaeria nodorum); experiment: Efficacy test on wheat glume blotch, spray treatment and prevention test (Test Example 8); format: in vivo; conditions: spray, lesion area ratio; for pest or weed control at 3 ppm / pest or weed control at 10 ppm: Parastagonospora nodorum, read-out: Preventive value
Outline: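 Wheat seedlings (Haruyutaka, 1-leaf stage) sprayed with diluted two-component formulation; one day later spray-inoculated with L. nodorum spores (1×100,000 cfu/ml), 48 h at 20° C, >95% RH, then 7 days greenhouse. Lesion area ratio gives preventive value versus untreated; synergy assessed by Colby method.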

Structure (SMILES): CC(C)O/N=C(/CNC(=O)c1ccccc1C(F)(F)F)c1ncc(Cl)cc1Cl [Compound No. 4]
- Preventive value ([1]; Test Example 5): 7
- Preventive value ([2]; single compound 3 ppm): 40
- Preventive value ([2]; single compound 10 ppm): 65

Structure (SMILES): COc1c(Cl)cnc(C(CNC(=O)c2ccccc2C(F)(F)F)=NOC(C)C)c1Cl [Compound No. 9]
- Preventive value ([1]; Test Example 6): 10
- Preventive value ([2]; single compound 3 ppm): 60
- Preventive value ([2]; single compound 10 ppm): 75

Structure (SMILES): CC#Cc1cnc(/C(CNC(=O)c2cn(C)nc2C(F)F)=N\OC(C)C)c(Cl)c1 [Compound No. 20, (Z)—N-[2-[3-chloro-5-(1-propynyl)pyridin-2-yl]-2-(isopropoxyimino)ethyl]-3-difluoromethyl-1-methyl-1H-pyrazole-4-carboxamide]
- Preventive value ([1]; Test Example 5): 0
- pest or weed control at 3 ppm ([2]; single compound 3 ppm): 80%
- pest or weed control at 10 ppm ([2]; single compound 10 ppm): 85%
- melting point: 102 to 103 °C

Structure (SMILES): CC(C)O/N=C(/CNC(=O)c1cn(C)nc1C(F)F)c1ncc(C#CC2CC2)cc1Cl [Compound No. 25, (Z)—N-[2-[3-chloro-5-(cyclopropylethynyl)pyridin-2-yl]-2-(isopropoxyimino)ethyl]-3-difluoromethyl-1-methyl-1H-pyrazole-4-carboxamide]
- Preventive value ([1]; Test Example 6): 8
- pest or weed control at 3 ppm ([2]; single compound 3 ppm): 75%
- pest or weed control at 10 ppm ([2]; single compound 10 ppm): 85%
- melting point: 105 to 107 °C

Structure (SMILES): CC(C)ON=C(CNC(=O)c1ccccc1C(F)(F)F)c1ncc(C(F)(F)F)cc1Cl [compound 14]
- Preventive value ([1]; Test Example 5): 6
- Preventive value ([2]; single compound 3 ppm): 75
- Preventive value ([2]; single compound 10 ppm): 80

Structure (SMILES): CON=C(CNC(=O)c1cn(C)nc1C(F)F)c1ncc(C#CC(C)(C)C)cc1Cl [compound 28]
- Preventive value ([1]; Test Example 5): 9
- Preventive value ([2]; single compound 3 ppm): 60
- Preventive value ([2]; single compound 10 ppm): 85
